Several values for one entry are separate records, joined by “and”; a condition that tells them apart may be missing. Equal values may be shown once. Read-outs that look alike come from different tables or passages of the source. Blank lines part the entries; values can stand above or below the molecule they belong to.
Tests used:
[1] = tested on: rabbit saphenous artery; assay: Vasorelaxant effect in vitro: phenylephrine-induced contraction of rabbit saphenous artery rings (C-1.1); details: Oryctolagus cuniculus, read-out: IC50, inhibition of phenylephrine induced contractions of rabbit saphenous artery rings
Procedure: Rabbits were anaesthetized and sacrificed by intravenous injection of thiopental sodium (about 50 mg/kg) and exsanguinated. The saphenous artery was removed and divided into rings 3 mm wide. The rings were mounted singly on in each case a pair of triangular hooks open at the end and made of 0.3 mm-thick special wire (Remanium®). Each ring was placed under an initial tension in 5 ml organ baths with Krebs-Henseleit solution which was at 37° C., was gassed with carbogen and had the following composition: NaCl 119 mM; KCl 4.8 mM; CaCl2)×2 H2O 1 mM; MgSO4×7 H2O 1.4 mM; KH2PO41.2 mM; NaHCO325 mM; glucose 10 mM; bovine serum albumin 0.001%. The force of contraction was detected with Statham UC2 cells, amplified and digitized via A/D converters (DAS-1802 HC, Keithley Instruments, Munich) and recorded in parallel on chart recorders. Contractions were induced by addition of phenylephrine.
The concentration necessary to reduce the contraction reached in the preceding control by 50% was calculated from this (IC50). The standard application volume was 5 μl. The proportion of DMSO in the bath solution corresponded to 0.1%.

[2] = Protein binding via Transil assay, plasma of all species investigated (C-5.2); assay type: in vitro ADME; details: Wistar (rat), Beagle (dog), plasma (Transil beads), read-out: free fractions
Description: (§1) The distribution of a test substance between Transil® (phosphatidylcholine lipid bilayers immobilized on silica beads) and plasma is a characteristic feature of any pharmaceutical compound and is dependent on its extent of binding to plasma proteins. By comparing the distribution between Transil® and buffer with the distribution between Transil® and plasma of any species of interest, the unbound fraction in the plasma of the respective animal species can be calculated in vitro. The respective plasma and buffer concentrations were determined via a radioactivity analysis. A detailed description of the method and its validation was published by Schuhmacher et al. (2).

[3] = Protein binding via Transil assay, human plasma; assay type: in vitro ADME; details: Human (male) plasma, Transil assay; read-out: Fraction unbound
Description: as §1

[4] = Protein binding via Transil assay, dog plasma; assay type: in vitro ADME; details: Dog Beagle plasma, Transil assay
Description: as §1

[5] = Protein binding via Transil assay, monkey plasma; assay type: in vitro ADME; details: Monkey Cynomolgus plasma
Description: as §1

[6] = tested on: anesthetized PAH minipigs; assay: PAH minipig model: intratracheal application of dry powder formulations and different hydrates (PennCentury insufflator); assay type: in vivo, Göttingen minipig; details: for BP (mean) / PAP(mean) / BP % changes vs. prevalues / PAP % changes vs. prevalues: 375 μg/kg i.t.; for BP (mean) / PAP(mean): absolute values; for BP % changes vs. prevalues / PAP % changes vs. prevalues: each animal
Description: After characterization of the effects of comparative example 11 after nebulization of compound solutions, in a further step the effects of crystalline forms of comparative example 11, e.g. sesquihydrate, e.g. example 6e on PAP and BP after inhaled application of different dry powder lactose formulations (table C2.1.8) were studied in anesthetized PAH minipigs.
As reference pure Lactose vehicle was applied in the beginning of each experiment.

[7] = Storage stability of pseudopolymorphic forms (XRPD after storage); assay type: physicochemical; details: 25° C./60% and 40° C./75% relative humidity
[8] = Stability of the crystalline form during micronization (spiral jet mill, XRPD); assay type: physicochemical
Description: Generally no amorphization even partial nor form conversion should happen during the necessary micronization step.
The corresponding batches (examples 8a-8d) were micronized using a 50 mm spiral jet mill and pressurized nitrogen with the following parameters (see table 16b).
The corresponding batches were micronized using a 100 mm spiral jet mill and pressurized nitrogen with the following parameters (see table 16c).

IC50 ([1]; 0.5 h, 30 min after incubation): 17 nM
IC50 ([1]; preincubation period of 2.5 h): 3 nM
fraction unbound [2]: < 0.01
fraction unbound [3]: 0.00392
fraction unbound [4]: 0.0112
fraction unbound [5]: 0.000799
SMILES: O=C(O)CCCCN(CCc1ccccc1OCc1ccc(CCc2ccccc2)cc1)Cc1ccc(C(=O)O)cc1 [comparative example 1, 4-[((4Carboxybutyl)-{2-[(4-phenethylbenzyl)oxy]phenethyl}amino)methyl]benzoic acid]

SMILES: O=C(O)c1ccc(CCN(CCc2ccccc2OCc2ccc(-c3ccc(C(F)(F)F)cc3)cc2Cl)[C@H]2CCCc3nc(C(=O)O)ccc32)cc1 [example 2, (5S)-{[2-(4-Carboxyphenyl)ethyl][2-(2-{[3-chloro-4′-(trifluoromethyl)biphenyl-4-yl]methoxy}phenyl)-ethyl]amino}-5,6,7,8-tetrahydroquinoline-2-carboxylic acid]
efficacy with regard to PAP reduction as well as systemic BP reduction ([6]; 1.5 mg/4 kg (=375 μg/kg) intratracheally, micronized): comparable efficacy
BP (mean) ([6]; time 0): 109 mmHg and 127 mmHg and 136 mmHg
PAP(mean) ([6]; time 0): 35.8 mmHg and 38.7 mmHg and 39.7 mmHg
BP (mean) ([6]; time 10): 110 mmHg and 126 mmHg and 135 mmHg
PAP(mean) ([6]; time 10): 35.8 mmHg and 38.7 mmHg and 37.1 mmHg
BP (mean) ([6]; time 20): 117 mmHg and 128 mmHg and 139 mmHg
PAP(mean) ([6]; time 20): 38.9 mmHg and 38.2 mmHg and 40.2 mmHg
BP (mean) ([6]; time 30): 121 mmHg and 128 mmHg and 139 mmHg
PAP(mean) ([6]; time 30): 39.8 mmHg and 38.6 mmHg and 40.0 mmHg
BP (mean) ([6]; time 40): 123 mmHg and 127 mmHg and 137 mmHg
PAP(mean) ([6]; time 40): 40.4 mmHg and 39.0 mmHg and 40.7 mmHg
BP (mean) ([6]; time 50): 120 mmHg and 127 mmHg and 135 mmHg
PAP(mean) ([6]; time 50): 39.7 mmHg and 39.2 mmHg and 40.2 mmHg
BP % changes vs. prevalues ([6]; time 50): 99.1% and 100.1% and 100.0%
PAP % changes vs. prevalues ([6]; time 50): 99.1% and 99.2% and 98.5%
BP (mean) ([6]; time 60): 121 mmHg and 127 mmHg and 136 mmHg
PAP(mean) ([6]; time 60): 39.9 mmHg and 39.2 mmHg and 40.8 mmHg
BP % changes vs. prevalues ([6]; time 60): 99.9% and 100.1% and 100.7%
PAP % changes vs. prevalues ([6]; time 60): 99.7% and 99.3% and 99.8%
BP (mean) ([6]; time 70): 124 mmHg and 126 mmHg and 137 mmHg
PAP(mean) ([6]; time 70): 39.1 mmHg and 36.0 mmHg and 37.2 mmHg
BP % changes vs. prevalues ([6]; time 70): 102.4% and 99.3% and 101.4%
PAP % changes vs. prevalues ([6]; time 70): 97.7% and 91.1% and 91.0%
BP (mean) ([6]; time 80): 123 mmHg and 124 mmHg and 135 mmHg
PAP(mean) ([6]; time 80): 39.1 mmHg and 36.1 mmHg and 35.9 mmHg
BP % changes vs. prevalues ([6]; time 80): 101.6% and 97.7% and 100.0%
PAP % changes vs. prevalues ([6]; time 80): 97.7% and 91.3% and 88.0%
BP (mean) ([6]; time 90): 122 mmHg and 125 mmHg and 134 mmHg
PAP(mean) ([6]; time 90): 37.9 mmHg and 35.2 mmHg and 34.5 mmHg
BP % changes vs. prevalues ([6]; time 90): 100.7% and 98.5% and 99.2%
PAP % changes vs. prevalues ([6]; time 90): 94.7% and 89.1% and 84.5%
BP (mean) ([6]; time 100): 122 mmHg and 124 mmHg and 132 mmHg
PAP(mean) ([6]; time 100): 36.8 mmHg and 33.2 mmHg and 32.7 mmHg
BP % changes vs. prevalues ([6]; time 100): 100.7% and 97.7% (2×)
PAP % changes vs. prevalues ([6]; time 100): 91.8% and 84.0% and 80.0%
BP (mean) ([6]; time 110): 122 mmHg and 125 mmHg and 133 mmHg
PAP(mean) ([6]; time 110): 35.5 mmHg and 31.9 mmHg and 31.2 mmHg
BP % changes vs. prevalues ([6]; time 110): 100.7% and 98.5% (2×)
PAP % changes vs. prevalues ([6]; time 110): 88.8% and 80.9% and 76.3%
BP (mean) ([6]; time 120): 121 mmHg and 125 mmHg and 132 mmHg
PAP(mean) ([6]; time 120): 34.8 mmHg and 30.2 mmHg and 29.8 mmHg
BP % changes vs. prevalues ([6]; time 120): 99.9% and 98.5% and 97.7%
PAP % changes vs. prevalues ([6]; time 120): 87.0% and 76.6% and 73.0%
BP (mean) ([6]; time 130): 120 mmHg and 124 mmHg and 131 mmHg
PAP(mean) ([6]; time 130): 34.2 mmHg and 29.7 mmHg and 29.3 mmHg
BP % changes vs. prevalues ([6]; time 130): 99.1% and 97.7% and 97.0%
PAP % changes vs. prevalues ([6]; time 130): 85.5% and 75.2% and 71.7%
BP (mean) ([6]; time 140): 119 mmHg and 125 mmHg and 131 mmHg
PAP(mean) ([6]; time 140): 34.3 mmHg and 29.3 mmHg and 28.6 mmHg
BP % changes vs. prevalues ([6]; time 140): 98.3% and 98.5% and 97.0%
PAP % changes vs. prevalues ([6]; time 140): 85.6% and 74.3% and 70.0%
BP (mean) ([6]; time 150): 117 mmHg and 124 mmHg and 130 mmHg
PAP(mean) ([6]; time 150): 33.7 mmHg and 28.4 mmHg
BP % changes vs. prevalues ([6]; time 150): 96.6% and 97.7% and 96.3%
PAP % changes vs. prevalues ([6]; time 150): 84.1% and 71.9% and 69.4%
BP (mean) ([6]; time 160): 117 mmHg
BP % changes vs. prevalues ([6]; time 160): 96.6% and 95.3% and 96.3%
PAP % changes vs. prevalues ([6]; time 160): 84.1% and 70.4% and 68.1%
BP % changes vs. prevalues ([6]; time 170): 95.8% and 94.5% and 95.5%
PAP % changes vs. prevalues ([6]; time 170): 83.8% and 69.8% and 68.5%
BP % changes vs. prevalues ([6]; time 180): 94.1% and 92.2% and 97.7%
PAP % changes vs. prevalues ([6]; time 180): 83.8% and 68.7% and 68.9%
BP % changes vs. prevalues ([6]; time 190): 92.5% and 91.4% and 98.5%
PAP % changes vs. prevalues ([6]; time 190): 83.9% and 67.7% and 69.3%
BP % changes vs. prevalues ([6]; time 200): 90.0% and 90.6% and 97.0%
PAP % changes vs. prevalues ([6]; time 200): 83.7% and 67.9% and 68.5%
BP % changes vs. prevalues ([6]; time 210): 90.8%
PAP % changes vs. prevalues ([6]; time 210): 83.4% and 66.5% and 67.7%
BP (mean) ([6]; time −10): 116 mmHg and 126 mmHg and 139 mmHg
PAP(mean) ([6]; time −10): 37.9 mmHg and 37.8 mmHg and 39.4 mmHg
storage stability of the form ([7]; listed as monohydrate II): underwent conversion to monohydrate I
stability of the form under micronization [8]: monohydrate II with partial amorphization
stability of the form under micronization ([8]; listed as monohydrate II): partial amorphization occurred under several conditions

SMILES: O=C(O)c1ccc(CCN(CCc2ccccc2OCc2ccc(-c3ccc(C(F)(F)F)cc3)cc2Cl)[C@H]2CCCc3nc(C(=O)O)ccc32)cc1 [example 4, (5S)-{[2-(4-Carboxyphenyl)ethyl][2-(2-{[3-chloro-4′-(trifluoromethyl)biphenyl-4-yl]methoxy}phenyl)-ethyl]amino}-5,6,7,8-tetrahydroquinoline-2-carboxylic acid]
storage stability of the form ([7]; listed as monohydrate I): stable
stability of the form under micronization ([8]; listed as monohydrate I): stable under micronization conditions

— patent publication US12138256B2, “Treatment of cardiopulmonary disorders” (Bayer Aktiengesellschaft, priority 2021, dated 2024)
